Experimental data published in the NIST ThermoML archive (doi:10.1016/j.jct.2012.12.014).
± gives the expanded uncertainty stated by the source.

Experiment: mn = molality of the nth substance listed, in mol/kg
Conditions: 298.15 K, 101 kPa, Liquid, Vibrating tube method

## Nc1cc[nH]c(=O)n1 [4-amino-2-hydroxypyrimidine] + O
m1 = 0.02193
  mass density: 997.872 ± 0.063 kg/m3
m1 = 0.02698
  mass density: 998.062 ± 0.063 kg/m3
m1 = 0.03192
  mass density: 998.246 ± 0.063 kg/m3
m1 = 0.03702
  mass density: 998.438 ± 0.063 kg/m3
m1 = 0.04187
  mass density: 998.618 ± 0.063 kg/m3
m1 = 0.04604
  mass density: 998.777 ± 0.063 kg/m3
m1 = 0.05099
  mass density: 998.96 ± 0.063 kg/m3
m1 = 0.05598
  mass density: 999.144 ± 0.063 kg/m3
m1 = 0.06284
  mass density: 999.402 ± 0.063 kg/m3
